Values after ≈ are worked out from the molar mass of the structure shown.
How the values were obtained:
[1] = test system: Human umbilical vein endothelial cells; assay: inhibition of human umbilical vein endothelial cell growth (MTT); format: cell-based; details: rFGF 2 ng/ml, 5-day culture, concentration giving 50% OD value of control; for IC50: Homo sapiens, Endothelial cell, 120 h, read-out: IC₅₀
Protocol: Human umbilical vein endothelial cells were isolated by perfusion of an umbilical vein with a trypsin-containing medium. The cells were cultured in sequence in GIT medium (Nihon Pharm. In.) supplemented with 2.5% fetal bovine serum and 2.0 ng/ml or recombinant human fibroblast growth factor (hereinafter simply referred to rFGF, prepared at Biotechnology Research Laboratories, Takeda Chemical Industries, Ltd.).
A suspension of human vein endothelial cells at the cell density of 2 x 10³ (100 µl) was seeded on 96-well incubation plate (Nunc, 1-67008), and incubation was conducted in a gas-controlled thermostat vessel. […] After 5-day culture, the medium was removed by suction, 100 µl of 1 mg/ml of MTT solution [3-(4,5-dimethyl-2-thiazolyl)-2,5-diphenyl-2H-tetrazolium bromide was dissolved in the medium] was added and kept warming for 4 hours. Then, 100 µl of a 10% SDS solution (aqueous solution of sodium dodecyl sulfate) was added, and the mixture was kept warming for 5-6 hours. The cells and MTT pigment were solubilized, and the optical density ([…]) was measured using a spectrophotometer. The OD value of the control group to which no test sample was added was set as 100%, and the activity of each test sample for inhibiting endothelial cell growth was shown in Table 2 by the concentration of the test compound giving 50% OD value, i.e. IC₅₀ value.

[2] = test system: bFGF-induced angiogenesis; assay: angiogenesis inhibitory activity by the rat cornea micropocket method; format: in vivo, Sprague-Dawley rats; details: number of rats on which angiogenesis inhibitory activity was observed relative to the number of rats tested, sample pellet 20 µg beside bFGF (250 ng) pellet in cornea, observed after 10 days; for responders at 20 µg/pellet: Rattus norvegicus, 240 h, read-out: Inhibitory Rate (converted)
Protocol: The object compounds (I) obtained in the Working Examples given below were evaluated for angiogenesis inhibitory activity by the rat cornea micropocket method.
Essentially the same method of Gimbrone et al. [J. National Cancer Institute, 52, 413-419 (1974)] was followed. Thus, adult male Sprague-Dawley rats 11 to 16 week old) were anesthetized with nembutal and locally anesthetized by instillation of xylocaine eyedrops onto the eyeball. The cornea was incised to a length of about 2 mm at about 2 mm inside from the corneal circumference by means of an injection needle, and a sustained release pellet containing basic fibroblast growth growth factor (bFGF; bovine brain-derived, purified product; R & D Inc.) and a sustained release pellet containing the test sample were inserted side by side into the incision so that the bFGF pellet was located on the central side in the cornea. In the control group, the bFGF pellet and a sample-free pellet were inserted into the cornea. After 10 days, the cornea was observed under a stereoscopic microscope.
The sustained release pellets were prepared in the following manner. An ethylene-vinyl acetate copolymer (Takeda Chemical Industries, Ltd.) was dissolved in dichloromethane to a concentration of 8%. A 3 µl portion of the solution was air-dried on a glass dish, an aqueous solution of bFGF (250 ng) was then placed thereon and air-dried and, finally 3 µl of the above ethylene-vinyl acetate copolymer solution was placed further thereon and air-dried to give a sandwich sheet. This sandwich sheet was made round into a bFGF pellet. The test sample pellets were prepared by dissolving each sample in ethanol in a concentration of 20 µg/2 µl, mixing the solution with 6 µl of an ethylene-vinyl acetate copolymer solution, air-drying the mixed solution in a glass dish and making the thus-obtained sheet round.
Incidentally, in the Table 1 below, the inhibitory rate means the number of rats on which angiogenesis inhibitory activity was observed relative to the number of rats tested.

Molecule	IC₅₀ [1] [ng/mL]	Inhibitory Rate [2]	IC50 [1] [ng/mL]	responders at 20 µg/pellet [2] [%]
6β-(N′-chloroacetylureido)-4′,5′-dihydro-6-desoxyfumagillol [Example 14]	0.14	5/5	–	–
CO[C@@H]1[C@H](N)CC[C@]2(CO2)[C@H]1[C@@]1(C)O[C@@H]1CC=C(C)C [Example 1, 6α-Amino-desoxyfumagillol]	–	–	7.92 (≈ 28.1 nM)	–
CO[C@@H]1[C@H](Nc2ccccc2)CC[C@]2(CO2)[C@H]1[C@@]1(C)O[C@@H]1CC=C(C)C [Example 2, 6α-Phenylamino-6-desoxyfumagillol]	–	–	–	62.5
CO[C@@H]1[C@H](N(C)C(C)=O)CC[C@]2(CO2)[C@H]1[C@@]1(C)O[C@@H]1CC=C(C)C [Example 3, 6α-(Acetyl)methylamino-6-desoxyfumagillol]	–	–	3.21 (≈ 9.51 nM)	50
CO[C@@H]1[C@H](NC(C)=O)CC[C@]2(CO2)[C@H]1[C@@]1(C)O[C@@H]1CC=C(C)C [Example 5, 6α-Acetylamino-6-desoxyfumagillol]	–	–	0.06 (≈ 0.186 nM)	57.1
CO[C@@H]1[C@H](NS(=O)(=O)c2ccc(C)cc2)CC[C@]2(CO2)[C@H]1[C@@]1(C)O[C@@H]1CC=C(C)C [Example 6, 6α-(p-Toluenesulfonylamino)-6-desoxyfumagillol]	–	–	7.04 (≈ 16.2 nM)	75
CO[C@@H]1[C@H](NC(=O)OCC(C)C)CC[C@]2(CO2)[C@H]1[C@@]1(C)O[C@@H]1CC=C(C)C [Example 7, 6α-(Isobutyloxy-carbonylamino)-6-desoxyfumagillol]	–	–	0.17 (≈ 0.446 nM)	100
CO[C@@H]1[C@H](NC(=O)c2ccccc2)CC[C@]2(CO2)[C@H]1[C@@]1(C)O[C@@H]1CC=C(C)C [Example 8, 6α-Benzoylamino-6-desoxyfumagillol]	–	–	0.2 (≈ 0.519 nM)	85.7
CO[C@@H]1[C@H](NC(=O)NC(=O)CCl)CC[C@]2(CO2)[C@H]1[C@@]1(C)O[C@@H]1CC=C(C)C [Example 9, 6α-(N′-chloroacetylureido)-6-desoxyfumagillol]	–	–	0.057 (≈ 0.142 nM)	100
CO[C@@H]1[C@H](NC(=S)Nc2cccc3ccccc23)CC[C@]2(CO2)[C@H]1[C@@]1(C)O[C@@H]1CC=C(C)C [Example 10, 6α-[N′-(1-naphthyl)thioureido]-6-desoxyfumagillol]	–	–	8.13 (≈ 17.4 nM)	40
CO[C@@H]1[C@H](NC(=O)Nc2cccc3ccccc23)CC[C@]2(CO2)[C@H]1[C@@]1(C)O[C@@H]1CC=C(C)C [Example 11, 6α-[N′-(1-naphthyl)ureido]-6-desoxyfumagillol]	–	–	0.34 (≈ 0.755 nM)	100
CO[C@@H]1[C@H](NC(=O)NCCCl)CC[C@]2(CO2)[C@H]1[C@@]1(C)O[C@@H]1CC=C(C)C [Example 12, 6α-[N′-(2-chloroethyl)ureido]-6-desoxyfumagillol]	–	–	1.16 (≈ 3 nM)	–
CO[C@@H]1[C@H](NC(N)=O)CC[C@]2(CO2)[C@H]1[C@@]1(C)O[C@@H]1CC=C(C)C [Example 13, 6α-Ureido-6-desoxyfumagillol]	–	–	0.1 (≈ 0.308 nM)	100
CO[C@@H]1[C@@H](N)CC[C@]2(CO2)[C@H]1[C@@]1(C)O[C@@H]1CC=C(C)C [Example 16, 6β-Amino-6-desoxyfumagillol]	–	–	9.49 (≈ 33.7 nM)	50
CO[C@@H]1[C@@H](N2CCCC2)CC[C@]2(CO2)[C@H]1[C@@]1(C)O[C@@H]1CC=C(C)C [Example 19, 6β-Pyrrolidino-6-desoxyfumagillol]	–	–	–	66.7
CO[C@H]1[C@H]([C@@]2(C)O[C@@H]2CC=C(C)C)[C@]2(CC[C@@H]1[N+]1(C)CCCC1)CO2 [Example 20, 6β-Pyrrolidino-6-desoxyfumagillol methyl iodide]	–	–	–	42.9
